# Source: US4430355A, “Condensed isothiazolo-3 (2H)-one-1-1-dioxides” (priority 1977, dated 1984)
# Where two headings read alike, the source gives them in different places.
# Tests used:
# [1] = Determination of the threshold concentration (taste testers, Schutz and Pilgrim method); design: key: mean of 5 testers; 0 = not sweet, 3 = very sweet
# Experimental: From novel compounds A, B, C, D, E and F and from known comparison compounds U, V and W aqueous solutions in concentrations of 1:12500, 1:25000, 1:50000, 1:100000 and 1:200000 were prepared and evaluated by each of 5 taste testers according to the following criteria: Very sweet (=3 points); medium sweet (=2 points), slightly sweet (=1 point) and not sweet (=0 point). The tests were carried out according to the method of H. G. Schutz and F. J. Pilgrim [Food Research 22, 206 (1957)]. The dilution with perceptible sweetness was defined as the concentration at which the average value reached the evaluation points 1.0 or higher.
# [2] = Determination of the relative sweetening power in comparison to saccharose (taste testers, 3% saccharose solution)
# Text: The relative sweetening power (often also defined as degree of sweetness) of sweetening agents in comparison to saccharose (cane sugar) varies with the concentrations within wide limits. Thus, in the usual concentrations (corresponding to a 2-10% solution of saccharose) the relative sweetening power of saccharin varies from 200 to 700. Therefore, for the determination of the relative sweetening power of the above-mentioned compounds a 3% aqueous solution of saccharose was always used for comparison.
# The further determination of the relative sweetening power was continued according to the methods of R. Pauli [Chemiker Zeitung 44, 744 (1920)] and T. Paul [Chemiker-Zeitung 45 38 (1921)]. Each test series was tested by 4 taste testers.
# [3] = Evaluation of taste quality
# Text: They often have a side-taste or after-taste. Novel compounds A to F are, however, characterized by a very pure sweet taste.
# mouse = assay: Orienting acute toxicity, oral, mouse; assay type: in vivo; settings: 6 animals
# Experimental: The acute toxicity was determined after oral administration to male and female mice and to male and female rats. The substances were given in an aqueous solution or as a suspension in tylose.
# [4] = higher dosage levels; cited from earlier work
# [5] = tested on: Salmonella typhimurium TA 98, TA 100, TA 1535, TA 1537, TA 1538; assay: AMES-system, test for mutagenic effects, Salmonella typhimurium; assay type: cell-based
# Experimental: Compounds C and D were tested in the AMES-system [Mutation Research 31, 347-364 (1975)] with regard to their mutagenic properties. In order to show the whole spectrum of induced molecular DNA-damages (base substitutions, frame-shift mutations, deletions) the auxotrophic bacterial strains Salmonella typhimurium TA 98, TA 100 and Escherichia coli WP 2 (P) were used as genetic indicators. The strains Salmonella typhimurium TA 1535, TA 1537 and TA 1538 were additionally used in the test of compound C.
# (§1) The test for all microorganisms were carried out in a way such that the influence of a microsomal enzyme system, together with the corresponding co-factors, could be tested with regard to the test substance, and to determine the differences in enzyme induction. The tests were performed without an activating system and in the presence of an activating system. For the in vitro-activation, S-9 supernatants (fraction of the endoplasmatic reticulum) of normal, i.e. not pre-treated rats and of Aroclor 1254 (500 mg/kg) induced rats were used. From the S-9 induced fraction, 3 different concentration levels were tested.
# (§2) The substance concentrations of compound C were 0.1 and 0.5 mgm/plate and the concentrations of compound D were 5, 10, 15 and 20 mg/plate.
# [6] = tested on: Escherichia coli WP 2 (P); assay: AMES-system, test for mutagenic effects, Escherichia coli; assay type: cell-based
# Experimental: In order to show the whole spectrum of induced molecular DNA-damages (base substitutions, frame-shift mutations, deletions) the auxotrophic bacterial strains Salmonella typhimurium TA 98, TA 100 and Escherichia coli WP 2 (P) were used as genetic indicators.
# as §1, with “For the in vitro-activation, S-9 supernatants (fraction of the endoplasmatic reticulum) of normal, i.e. not pre-treated rats and of Aroclor 1254 (500 mg/kg) induced rats were used.” left out
# microorganism growth = assay: Series dilution essay, inhibition of the microorganism growth; assay type: cell-based; settings: highest dosages (C 0.5 mgm/plate, D 20 mg/plate)
# Experimental: as §2
# [7] = value given on page 6 of German Offenlegungsschrift 2,534,689; cited from earlier work
# [8] = compared with 3% aqueous solution of saccharose
smiles,measurement,setting,value
"Cc1cc2c(o1)S(=O)(=O)NC2=O [A, 5-Methyl-furo[3,2-d]isothiazole-3-(2H)-one-1,1-dioxide]",Average Value of Evaluation Points,[1]; concentration 1:12500,1.4
same,Average Value of Evaluation Points,[1]; concentration 1:25000,0.2
same,Relative Sweetening Power (Saccharose = 1),[2]; [8],150
same,taste quality compared with saccharose (cane sugar),[3],achieve the taste quality of saccharose
same,"Animals which died within the observation time, 1 day",mouse; 1000 mgm/kg oral,0 animals
same,"Animals which died within the observation time, 7 days",mouse; 1000 mgm/kg oral,0 animals
"Cc1sc2c(c1C)C(=O)NS2(=O)=O.[Na] [F, 4,5-Dimethyl-thieno[3,2-d]isothiazole-3(2H)-one-1,1-dioxide sodium salt]",Average Value of Evaluation Points,[1]; concentration 1:50000,2.0
same,Average Value of Evaluation Points,[1]; concentration 1:100000,1.4
same,Average Value of Evaluation Points,[1]; concentration 1:200000,0.2
same,Relative Sweetening Power (Saccharose = 1),[2]; [8],1000
"O=S(=O)(O)NC1CCCCC1 [U, Cyclamate, reference compound]",Average Value of Evaluation Points,[1]; concentration 1:12500,0.4
same,Relative Sweetening Power (Saccharose = 1),[2],60
same,safety as sweetening agent,[4],not entirely safe
"O=C1NS(=O)(=O)c2ccccc21.[Na] [W, Saccharin sodium, reference compound]",Average Value of Evaluation Points,[1]; concentration 1:25000,2.2
same,Average Value of Evaluation Points,[1]; concentration 1:50000,1.2
same,Average Value of Evaluation Points,[1]; concentration 1:100000,0.0
same,Relative Sweetening Power (Saccharose = 1),[2]; [8],550
"Cc1cc2c(s1)S(=O)(=O)NC2=O [B, 5-Methyl-thieno[3,2-d]isothiazole-3(2H)-one-1,1-dioxide]",Average Value of Evaluation Points,[1]; concentration 1:25000,2.2
same,Average Value of Evaluation Points,[1]; concentration 1:50000,1.4
same,Average Value of Evaluation Points,[1]; concentration 1:100000,0.2
same,Relative Sweetening Power (Saccharose = 1),[2]; [8],550
same,"Animals which died within the observation time, 1 day",mouse; 5000 mgm/kg oral,0 animals
same,"Animals which died within the observation time, 7 days",mouse; 5000 mgm/kg oral,0 animals
"Cc1cc2c(s1)S(=O)(=O)NC2=O.[Ca] [D, 5-Methyl-thieno[3,2-d]isothiazole-3(2H)-one-1,1-dioxide calcium salt]",Average Value of Evaluation Points,[1]; concentration 1:25000,1.8
same,Average Value of Evaluation Points,[1]; concentration 1:50000,1.0
same,Average Value of Evaluation Points,[1]; concentration 1:100000,0.0
same,Relative Sweetening Power (Saccharose = 1),[2]; [8],500
same,"Animals which died within the observation time, 1 day",mouse; 5000 mgm/kg oral,0 animals
same,"Animals which died within the observation time, 7 days",mouse; 5000 mgm/kg oral,0 animals
same,release of base substitutions,"[5]; S. typhimurium TA 1535, TA 100",do not release base substitutions
same,release of frame-shift mutations,"[5]; S. typhimurium TA 1537, TA 1538, TA 98",do not release
same,increase in the spontaneous mutation rate,"[5]; Salmonella strains, C 0.1 and 0.5 mgm/plate, D 5-20 mg/plate, with and without activating system",did not lead to an increase
same,colonies counted on the substance plates,[5]; all test strains,within the spontaneous range
same,effect of the enzyme induction and of the activating fraction on the reverse mutation rate,"[5]; all tested strains, S-9 of normal and Aroclor 1254 induced rats",not detectable
same,mutagenic potential,[5]; conclusion over all tested strains,do not indicate a mutagenic potential
same,release of base substitutions,[6]; E. coli WP2 (P),do not release base substitutions
same,increase in the spontaneous mutation rate,"[6]; E. coli WP 2 (P), C 0.1 and 0.5 mgm/plate, D 5-20 mg/plate, with and without activating system",did not lead to an increase
same,inhibition of the microorganism growth,microorganism growth,did not show any inhibition
"O=C1NS(=O)(=O)c2sccc21 [X, Thieno[3,2-d]isothiazole-3(2H)-one-1,1-dioxide]",Relative Sweetening Power (Saccharose = 1),[7],350
"Cc1sc2c(c1C)C(=O)NS2(=O)=O [E, 4,5-Dimethyl-thieno[3,2-d]isothiazole-3(2H)-one-1,1-dioxide]",Average Value of Evaluation Points,[1]; concentration 1:50000,2.2
same,Average Value of Evaluation Points,[1]; concentration 1:100000,1.6
same,Average Value of Evaluation Points,[1]; concentration 1:200000,0.4
same,Relative Sweetening Power (Saccharose = 1),[2]; [8],1050
same,"Animals which died within the observation time, 1 day",mouse; 1000 mgm/kg oral,0 animals
same,"Animals which died within the observation time, 7 days",mouse; 1000 mgm/kg oral,0 animals
